As a reminder, the IC50 is the concentration needed to halve the response being measured.

Drawing on US20120129833A1, “CYCLIC KETOENOLS FOR THERAPY” (BAYER PHARMA AKTIENGESELLSCHAFT, priority 2010, published 2012), this text covers IC50 for 16 compounds.

Experiment [1] addresses T1, recombinant human ACC1 (acetyl-CoA carboxylase 1) (Homo sapiens, UniProt Q13085).
T1 construct: NM_198834, amino acids 39—end; FLAG (C); made in house; host or cells: baculovirus-transfected insect cells (Hi5)
The experiment in a line: Human ACC1 enzyme assay (HTRF ADP detection).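 Also: ADP by-product quantified by competitive HTRF immunoassay with europium cryptate anti-ADP antibody and d2-labelled ADP, read after 1 h binding at 22 °C, enzyme near 2.5 ng/µl.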 Type of experiment: biochemical. The conditions noted are these: 50 μM ATP, 20 μM acetyl-CoA, 15 min pre-incubation, 20 min at 22° C.; read-out: ACC 1 IC50.
Procedure: The basic principle of the assay is the measurement of adenosine diphosphate (ADP), which is formed as a by-product, by means of an HTRF®-based competitive immunoassay (HTRF=Homogeneous Time Resolved Fluorescence).
The amount of complex of d2-labelled ADP and europium cryptate-labelled anti-ADP antibody was then determined by measuring the resonance energy transfer of europium cryptate to d2.

Experiment [2] addresses T2, ACC2 (acetyl-CoA carboxylase 2) (Homo sapiens, UniProt O00763).
T2 construct: catalogue no; 50201, amino acids 39—end, expressed in baculovirus-transfected Sf9 insect cells; His (C); purchased BPS Bioscience (San Diego, Calif.) 50201; host or cells: baculovirus-transfected Sf9 insect cells
In words: Human ACC2 enzyme assay (HTRF ADP detection). Type of experiment: biochemical. The conditions noted are these: 20 μM acetyl-CoA, 15 min pre-incubation, 20 min at 22° C.; read-out: ACC 2 IC50. Background: In TR-FRET formats the signal depends on donor and acceptor labels being close together.

T2 sequence (O00763 39-2458 limits assumed): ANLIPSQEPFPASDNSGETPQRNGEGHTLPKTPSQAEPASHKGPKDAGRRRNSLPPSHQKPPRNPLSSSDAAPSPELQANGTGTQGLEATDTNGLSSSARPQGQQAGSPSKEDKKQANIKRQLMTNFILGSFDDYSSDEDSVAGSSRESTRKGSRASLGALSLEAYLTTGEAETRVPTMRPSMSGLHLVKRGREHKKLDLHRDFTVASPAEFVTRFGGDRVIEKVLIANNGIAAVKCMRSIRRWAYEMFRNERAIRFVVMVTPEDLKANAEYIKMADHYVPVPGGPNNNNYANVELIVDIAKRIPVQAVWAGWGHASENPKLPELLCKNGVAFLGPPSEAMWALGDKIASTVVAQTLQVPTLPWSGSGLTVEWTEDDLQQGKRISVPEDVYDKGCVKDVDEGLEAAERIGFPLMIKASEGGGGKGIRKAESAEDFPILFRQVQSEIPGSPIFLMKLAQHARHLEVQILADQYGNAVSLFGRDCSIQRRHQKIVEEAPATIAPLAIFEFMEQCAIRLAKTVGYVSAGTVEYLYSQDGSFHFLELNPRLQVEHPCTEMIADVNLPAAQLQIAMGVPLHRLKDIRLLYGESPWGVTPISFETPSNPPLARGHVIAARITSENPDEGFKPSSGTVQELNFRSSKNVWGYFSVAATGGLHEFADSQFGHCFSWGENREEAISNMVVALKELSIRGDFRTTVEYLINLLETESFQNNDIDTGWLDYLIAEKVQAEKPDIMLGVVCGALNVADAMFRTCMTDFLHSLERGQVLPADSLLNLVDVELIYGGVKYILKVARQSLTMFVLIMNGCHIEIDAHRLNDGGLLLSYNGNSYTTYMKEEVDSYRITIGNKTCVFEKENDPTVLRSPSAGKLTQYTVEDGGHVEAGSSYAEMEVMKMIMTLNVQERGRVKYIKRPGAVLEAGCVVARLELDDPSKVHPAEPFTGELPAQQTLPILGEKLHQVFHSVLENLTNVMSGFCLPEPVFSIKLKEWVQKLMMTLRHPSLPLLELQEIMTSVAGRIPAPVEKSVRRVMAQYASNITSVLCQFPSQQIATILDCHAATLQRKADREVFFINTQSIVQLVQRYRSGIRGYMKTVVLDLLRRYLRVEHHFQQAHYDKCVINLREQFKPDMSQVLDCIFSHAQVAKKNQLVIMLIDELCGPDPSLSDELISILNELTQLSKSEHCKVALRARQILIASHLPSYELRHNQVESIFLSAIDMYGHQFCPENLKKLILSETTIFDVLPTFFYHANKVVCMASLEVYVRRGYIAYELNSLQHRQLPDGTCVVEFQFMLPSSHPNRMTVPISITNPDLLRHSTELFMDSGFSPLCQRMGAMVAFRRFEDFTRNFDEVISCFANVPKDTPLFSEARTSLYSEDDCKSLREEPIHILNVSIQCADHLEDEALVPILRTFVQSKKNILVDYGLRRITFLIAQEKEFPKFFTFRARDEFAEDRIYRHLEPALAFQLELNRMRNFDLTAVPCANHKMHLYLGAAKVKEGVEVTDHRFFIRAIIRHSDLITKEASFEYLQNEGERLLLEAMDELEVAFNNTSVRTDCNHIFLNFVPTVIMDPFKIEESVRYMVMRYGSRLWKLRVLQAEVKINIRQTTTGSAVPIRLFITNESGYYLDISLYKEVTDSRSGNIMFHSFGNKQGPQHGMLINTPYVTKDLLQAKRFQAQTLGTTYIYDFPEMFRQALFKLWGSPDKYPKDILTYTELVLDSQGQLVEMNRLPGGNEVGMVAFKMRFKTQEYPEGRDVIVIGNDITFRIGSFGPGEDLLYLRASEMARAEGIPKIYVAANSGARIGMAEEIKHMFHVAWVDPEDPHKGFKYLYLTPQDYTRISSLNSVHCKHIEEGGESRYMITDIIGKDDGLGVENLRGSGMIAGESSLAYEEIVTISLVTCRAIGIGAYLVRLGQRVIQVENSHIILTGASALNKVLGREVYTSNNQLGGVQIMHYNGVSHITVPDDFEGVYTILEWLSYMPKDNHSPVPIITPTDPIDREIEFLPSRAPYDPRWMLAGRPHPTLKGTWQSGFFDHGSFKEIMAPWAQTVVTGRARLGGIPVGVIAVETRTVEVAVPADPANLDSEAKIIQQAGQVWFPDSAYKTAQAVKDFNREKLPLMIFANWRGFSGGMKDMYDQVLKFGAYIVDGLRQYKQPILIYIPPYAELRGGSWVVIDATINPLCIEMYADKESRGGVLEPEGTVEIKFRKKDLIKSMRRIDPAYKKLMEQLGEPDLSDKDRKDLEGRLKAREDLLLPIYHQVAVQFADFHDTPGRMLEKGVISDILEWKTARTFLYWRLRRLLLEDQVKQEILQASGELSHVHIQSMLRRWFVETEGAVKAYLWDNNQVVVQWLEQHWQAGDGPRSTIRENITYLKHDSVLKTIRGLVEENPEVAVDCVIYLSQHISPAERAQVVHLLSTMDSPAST

On to `Cc1ccc(-c2ccc(Cl)cc2)cc1-c1c(O)c2ccccc2[nH]c1=O` [Example 9-5, 3-(4′-chloro-4-methylbiphenyl-3-yl)-4-hydroxyquinolin-2(1H)-one], for which the concentration for half-maximal inhibition (IC50) in experiment [1] is 0.625 µM; in experiment [2], over 20 µM.
The like results for `Cc1ccc(-c2ccc(C(F)(F)F)cc2)cc1-c1c(O)c2ccc(Cl)cc2[nH]c1=O` [Example 9-6, 7-chloro-4-hydroxy-3-[4-methyl-4′-(trifluoromethyl)biphenyl-3-yl]quinolin-2(1H)-one] were, in that order, 1.09 µM and 18.9 µM.
The like results for `Cc1ccc(-c2ccc(Cl)cc2)cc1-c1c(O)c2ccc(F)cc2[nH]c1=O` [Example 9-8, 3-(4′-chloro-4-methylbiphenyl-3-yl)-7-fluoro-4-hydroxyquinolin-2(1H)-one] were, in that order, 0.418 µM and over 20 µM.
`Cc1ccc(-c2ccc(F)cc2)cc1-c1c(O)c2ccc(F)cc2[nH]c1=O` [Example 9-9, 7-fluoro-3-(4′-fluoro-4-methylbiphenyl-3-yl)-4-hydroxyquinolin-2(1H)-one]: the figures for the IC50 in experiment [1] and in experiment [2] were 0.863 µM and over 20 µM, respectively.
For `Cc1ccc(-c2ccc(C(F)(F)F)cc2)cc1-c1c(O)c2ccc(F)cc2[nH]c1=O` [Example 9-10, 7-fluoro-4-hydroxy-3-[4-methyl-4′-(trifluoromethyl)biphenyl-3-yl]quinolin-2(1H)-one], in that order: 1.69 µM and over 20 µM.
As for `Cc1ccc(-c2ccc(Cl)cc2)cc1-c1c(O)c2ccc(Cl)cc2[nH]c1=O` [Example 9-11, 7-chloro-3-(4′-chloro-4-methylbiphenyl-3-yl)-4-hydroxyquinolin-2(1H)-one], the IC50 turned out to be 0.42 µM in experiment [1] and 4.12 µM in experiment [2].
In the case of `O=c1[nH]c2cc(Cl)ccc2c(O)c1-c1cc(-c2ccc(Cl)cc2)ccc1Cl` [Example 9-13, 7-chloro-3-(4,4′-dichlorobiphenyl-3-yl)-4-hydroxyquinolin-2(1H)-one], the half-inhibitory concentration (IC50) in experiment [1] was 0.329 µM; in experiment [2] it was 5.56 µM.
For `Cc1ccc(-c2ccc(Cl)cc2)cc1C1=C(O)C(C)(C)C(C)(C)NC1=O` [Example 9-14, 3-(4′-chloro-4-methylbiphenyl-3-yl)-4-hydroxy-5,5,6,6-tetramethyl-5,6-dihydropyridin-2(1H)-one], in that order: 1.64 µM and 5.62 µM.
The like results for `CC1(C)OC(=O)C(c2cc(-c3ccc(Cl)cc3)ccc2Cl)=C(O)C1(C)C` [Example 10-1, 3-(4,4′-dichlorobiphenyl-3-yl)-4-hydroxy-5,5,6,6-tetramethyl-5,6-dihydro-2H-pyran-2-one] were, in that order, 1.37 µM and over 20 µM.
For `Cc1ccc(-c2ccc(Cl)cc2)cc1C1=C(O)C(C)(C)C(C)(C)OC1=O` [Example 10-2, 3-(4′-chloro-4-methylbiphenyl-3-yl)-4-hydroxy-5,5,6,6-tetramethyl-5,6-dihydro-2H-pyran-2-one], in that order: 0.586 µM and over 20 µM.
Regarding `Cc1ccc(-c2ccc(Cl)cc2)cc1C1C(=O)N(C)OC(C)(C)C1=O` (centres unmarked) [Example 11-1, 4-(4′-chloro-4-methylbiphenyl-3-yl)-2,6,6-trimethyl-1,2-oxazinane-3,5-dione], the values for the half-maximal inhibitory concentration (IC50) in experiment [1] and in experiment [2] were 4 µM and over 20 µM, respectively.
For `CCc1cc(-c2ccccc2)cc(Cl)c1C1C(=O)N2CCOCCN2C1=O` [Example C-1, reference compound], in that order: over 20 µM and over 20 µM.
The like results for `COC1CCC2(CC1)NC(=O)C(c1c(C)cc(-c3ccc(Cl)cc3)cc1C)=C2O` (centres unmarked) [Example C-2, reference compound] were, in that order, over 20 µM and over 20 µM.
The like results for `COC1CCC2(CC1)NC(=O)C(c1c(C)cc(OC(F)(F)F)cc1Cl)=C2O` (centres unmarked) [Example C-3, reference compound] were, in that order, over 20 µM and over 20 µM.
`CCc1cc(C)cc(Br)c1C1=C(O)C2(CCCCC2)OC1=O` [Example C-4, reference compound]: the IC50 in experiment [1] was 5.4 µM; in experiment [2], over 20 µM.
For “(5r,8r)-3-(4′-chloro-2,4-dimethylbiphenyl-3-yl)-4-hydroxy-8-methoxy-8-methyl-1-azaspiro[4.5]dec-3-en-2-one [Example 1-87]”, in that order: 0.54 µM and 7.3 µM.
